{"source": "patent US9326973B2", "about": "“Hepatitis C virus inhibitors” (priority 2012, dated 2016)", "data": [{"system": "HCV replicon, genotype-1a variant with glutamine 30 changed to glutamate in the NS5A protein", "experiment": "microbe, parasite or virus in culture", "assay_type": "cell-based, HCV genotype 1a", "conditions": "HCV replicon genotype 1a Q30E (Q→E) variant; test compound titrated with an NS5A-targeting compound (BMS-790052 fixed at 200 nM); ranking of synergist activity", "outline": "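Synergy was assessed by combining several fixed amounts of an NS5A-targeting compound with a titration of the second compound of interest.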", "units": {"Fold-Synergistic 1a (Q30E)": "fold"}, "values": [{"smiles": "O=C(c1cccs1)N1CCC[C@H]1c1ncc(-c2ccc(-c3ccc(-c4cnc([C@@H]5CCCN5C(=O)c5cccs5)[nH]4)cc3)cc2)[nH]1", "note": "[Compound S-182]", "Fold-Synergistic 1a (Q30E)": "<10"}, {"smiles": "O=C(c1cncnc1)N1CCC[C@H]1c1ncc(-c2ccc(-c3ccc(-c4cnc([C@@H]5CCCN5C(=O)c5cncnc5)[nH]4)cc3)cc2)[nH]1", "note": "[Compound S-195]", "Fold-Synergistic 1a (Q30E)": "<10"}, {"smiles": "CC(C)(C)[C@H](NC(=O)C1(O)CCC1)c1nc(-c2ccc(-c3ccc(-c4c[nH]c([C@@H](NC(=O)C5(O)CCC5)C(C)(C)C)n4)cc3)cc2)c[nH]1", "note": "[Compound L-71]", "Fold-Synergistic 1a (Q30E)": ">100"}, {"smiles": "CC(C)[C@H](NC(=O)C1CC(F)(F)C1)c1nc(-c2ccc3c(c2)Cc2cc(-c4c[nH]c([C@@H](NC(=O)C5CC(F)(F)C5)C(C)C)n4)ccc2-3)c[nH]1", "note": "[Compound N-71]", "Fold-Synergistic 1a (Q30E)": ">100"}, {"smiles": "CC(C)(C)[C@H](NC(=O)[C@@]12CC[C@@](C)(C(=O)O1)C2(C)C)c1nc(-c2ccc(-c3ccc(-c4c[nH]c([C@@H](NC(=O)[C@@]56CC[C@@](C)(C(=O)O5)C6(C)C)C(C)(C)C)n4)cc3)cc2)c[nH]1", "note": "[Compound P-170]", "Fold-Synergistic 1a (Q30E)": ">100"}, {"smiles": "CC(C)(C)[C@H](NC(=O)C1(N2CCOCC2)CC1)c1nc(-c2ccc(-c3ccc(-c4c[nH]c([C@@H](NC(=O)C5(N6CCOCC6)CC5)C(C)(C)C)n4)cc3)cc2)c[nH]1", "note": "[Compound L-31]", "Fold-Synergistic 1a (Q30E)": ">100"}, {"smiles": "CC(C)(C)[C@H](NC(=O)C1(C2(O)CCC(F)(F)CC2)CC1)c1nc(-c2ccc(-c3ccc(-c4c[nH]c([C@@H](NC(=O)C5(C6(O)CCC(F)(F)CC6)CC5)C(C)(C)C)n4)cc3)cc2)c[nH]1", "note": "[Compound P-146]", "Fold-Synergistic 1a (Q30E)": ">100"}, {"smiles": "CC(C)(C)OC(=O)N1C[C@H]2CC2[C@H]1C(=O)N[C@H](c1nc(-c2ccc(-c3ccc(-c4c[nH]c([C@@H](NC(=O)[C@@H]5C6C[C@@H]6CN5C(=O)OC(C)(C)C)C5(C)CC5)n4)cc3)cc2)c[nH]1)C1(C)CC1", "note": "(some centres unmarked) [Compound W-75]", "Fold-Synergistic 1a (Q30E)": ">100"}, {"smiles": "CC(C)[C@H](NC(=O)C(=O)N1CCCCCC1)c1nc(-c2ccc(-c3ccc(-c4c[nH]c([C@@H](NC(=O)C(=O)N5CCCCCC5)C(C)C)n4)cc3)cc2)c[nH]1", "note": "[Compound W-52]", "Fold-Synergistic 1a (Q30E)": ">100"}, {"smiles": "O=C(c1ncc(Cl)c2ccccc12)N1CCC[C@H]1c1ncc(-c2ccc(-c3ccc(-c4cnc([C@@H]5CCCN5C(=O)c5ncc(Cl)c6ccccc56)[nH]4)cc3)cc2)[nH]1", "note": "[Compound S-200]", "Fold-Synergistic 1a (Q30E)": ">100"}, {"smiles": "O=C(Cc1ccncc1)N1CCC[C@H]1c1ncc(-c2ccc(-c3ccc(-c4cnc([C@@H]5CCCN5C(=O)Cc5ccncc5)[nH]4)cc3)cc2)[nH]1", "note": "[Compound S-150]", "Fold-Synergistic 1a (Q30E)": "<10"}, {"smiles": "C[C@H]1CCN(C(=O)C(=O)N2CCC(F)(F)CC2)C1c1nc(-c2ccc(-c3ccc(-c4c[nH]c([C@@H]5[C@@H](C)CCN5C(=O)C(=O)N5CCC(F)(F)CC5)n4)cc3)cc2)c[nH]1", "note": "(some centres unmarked) [Compound W-187]", "Fold-Synergistic 1a (Q30E)": ">100"}, {"smiles": "CCN(CCOC)C(=O)C(C)(C)C(=O)N[C@H](c1nc(-c2ccc(-c3ccc(-c4c[nH]c([C@@H](NC(=O)C(C)(C)C(=O)N(CC)CCOC)C(C)(C)C)n4)cc3)cc2)c[nH]1)C(C)(C)C", "note": "[Compound W-157]", "Fold-Synergistic 1a (Q30E)": ">10"}, {"smiles": "COc1cccc2c(C(=O)N3CCC[C@H]3c3ncc(-c4ccc(-c5ccc(-c6cnc([C@@H]7CCCN7C(=O)c7nccc8c(OC)cccc78)[nH]6)cc5)cc4)[nH]3)nccc12", "note": "[Compound S-201]", "Fold-Synergistic 1a (Q30E)": ">100"}, {"smiles": "CCCCCC(=O)N1CCC[C@H]1c1ncc(-c2ccc(-c3ccc(-c4cnc([C@@H]5CCCN5C(=O)CCCCC)[nH]4)cc3)cc2)[nH]1", "note": "[Compound S-181]", "Fold-Synergistic 1a (Q30E)": ">10"}, {"smiles": "CC(C)(C)[C@H](NC(=O)CN1CCOC1=O)c1nc(-c2ccc(-c3ccc(-c4c[nH]c([C@@H](NC(=O)CN5CCOC5=O)C(C)(C)C)n4)cc3)cc2)c[nH]1", "note": "[Compound L-25]", "Fold-Synergistic 1a (Q30E)": ">10"}, {"smiles": "CN(C)C(=O)OC1(C(=O)N[C@H](c2nc(-c3ccc(-c4ccc(-c5c[nH]c([C@@H](NC(=O)C6(OC(=O)N(C)C)CC6)C(C)(C)C)n5)cc4)cc3)c[nH]2)C(C)(C)C)CC1", "note": "[Compound L-29]", "Fold-Synergistic 1a (Q30E)": ">100"}, {"smiles": "O=C(c1nccc2c(Cl)cccc12)N1CCC[C@H]1c1ncc(-c2ccc(-c3ccc(-c4cnc([C@@H]5CCCN5C(=O)c5nccc6c(Cl)cccc56)[nH]4)cc3)cc2)[nH]1", "note": "[Compound S-206]", "Fold-Synergistic 1a (Q30E)": ">100"}, {"smiles": "CC(C)(C)[C@H](NC(=O)C1CCCCC1c1ccccc1)c1nc(-c2ccc(-c3ccc(-c4c[nH]c([C@@H](NC(=O)C5CCCCC5c5ccccc5)C(C)(C)C)n4)cc3)cc2)c[nH]1", "note": "(some centres unmarked) [Compound S-269]", "Fold-Synergistic 1a (Q30E)": ">100"}, {"smiles": "C=C1CCC(C(=O)N[C@H](c2nc(-c3ccc(-c4ccc(-c5c[nH]c([C@@H](NC(=O)C6CCC(=C)CC6)C(C)(C)C)n5)cc4)cc3)c[nH]2)C(C)(C)C)CC1", "note": "[Compound N-118]", "Fold-Synergistic 1a (Q30E)": ">100"}, {"smiles": "CO[C@@H](C(=O)N[C@H](c1nc(-c2ccc(-c3ccc(-c4c[nH]c([C@@H](NC(=O)[C@H](OC)C(C)C)C(C)(C)C)n4)cc3)cc2)c[nH]1)C(C)(C)C)C(C)C", "note": "[Compound L-86]", "Fold-Synergistic 1a (Q30E)": ">100"}, {"smiles": "O=C(c1cnc2ccccc2n1)N1CCC[C@H]1c1ncc(-c2ccc(-c3ccc(-c4cnc([C@@H]5CCCN5C(=O)c5cnc6ccccc6n5)[nH]4)cc3)cc2)[nH]1", "note": "[Compound S-126]", "Fold-Synergistic 1a (Q30E)": ">100"}, {"smiles": "CC(C)(C)OC(=O)N1CCCC[C@@H]1C(=O)N[C@H](c1nc(-c2ccc(-c3ccc(-c4c[nH]c([C@@H](NC(=O)[C@H]5CCCCN5C(=O)OC(C)(C)C)C(C)(C)C)n4)cc3)cc2)c[nH]1)C(C)(C)C", "note": "[Compound L-16]", "Fold-Synergistic 1a (Q30E)": ">100"}, {"smiles": "CC(C)(C)[C@H](NC(=O)C(F)(F)C1(O)CCCCC1)c1nc(-c2ccc(-c3ccc(-c4c[nH]c([C@@H](NC(=O)C(F)(F)C5(O)CCCCC5)C(C)(C)C)n4)cc3)cc2)c[nH]1", "note": "[Compound P-159]", "Fold-Synergistic 1a (Q30E)": ">100"}, {"smiles": "C[C@@H](OC(=O)N(C)C1(C(=O)N[C@H](c2nc(-c3ccc(-c4ccc(-c5c[nH]c([C@@H](NC(=O)C6(N(C)C(=O)O[C@H](C)C(F)(F)F)CC6)C6(C)CC6)n5)cc4)cc3)c[nH]2)C2(C)CC2)CC1)C(F)(F)F", "note": "[Compound L-92]", "Fold-Synergistic 1a (Q30E)": ">100"}, {"smiles": "CCC(C)[C@H](NC(=O)[C@@H](NC(=O)OC)C(C)C)c1nc(-c2ccc(-c3ccc(-c4c[nH]c([C@@H](NC(=O)[C@@H](NC(=O)OC)C(C)C)C(C)CC)n4)cc3)cc2)c[nH]1", "note": "(some centres unmarked) [Compound N-33]", "Fold-Synergistic 1a (Q30E)": ">10"}, {"smiles": "Cc1ccc(C(F)(F)C(=O)N[C@H](c2nc(-c3ccc(-c4ccc(-c5c[nH]c([C@@H](NC(=O)C(F)(F)c6ccc(C)cc6)C(C)(C)C)n5)cc4)cc3)c[nH]2)C(C)(C)C)cc1", "note": "[Compound S-288]", "Fold-Synergistic 1a (Q30E)": ">100"}, {"smiles": "Cc1cc(-c2ccc(-c3c[nH]c([C@@H](NC(=O)C4(C)CCCCC4)C(C)C)n3)cc2)ccc1-c1c[nH]c([C@@H](NC(=O)C2(C)CCCCC2)C(C)C)n1", "note": "[Compound N-79]", "Fold-Synergistic 1a (Q30E)": ">100"}, {"smiles": "O=C(N1CCC[C@H]1c1ncc(-c2ccc(-c3ccc(-c4cnc([C@@H]5CCCN5C(=O)C5(c6ccc(F)cc6Cl)CCCC5)[nH]4)cc3)cc2)[nH]1)C1(c2ccc(F)cc2Cl)CCCC1", "note": "[Compound S-156]", "Fold-Synergistic 1a (Q30E)": "<10"}, {"smiles": "COC(=O)N[C@H](C(=O)NC(C)(C)c1nc(-c2ccc(-c3ccc(-c4c[nH]c(C(C)(C)NC(=O)[C@@H](NC(=O)OC)C(C)C)n4)cc3)cc2)c[nH]1)C(C)C", "note": "[Compound N-25]", "Fold-Synergistic 1a (Q30E)": "<10"}, {"smiles": "COC(=O)N[C@H](C(=O)NC1(c2nc(-c3ccc(-c4ccc(-c5c[nH]c(C6(NC(=O)[C@@H](NC(=O)OC)C(C)C)CC6)n5)cc4)cc3)c[nH]2)CC1)C(C)C", "note": "[Compound N-20]", "Fold-Synergistic 1a (Q30E)": "<10"}, {"smiles": "CC(C)(C)OC(=O)N1CCOC[C@H]1C(=O)N[C@H](c1nc(-c2ccc(-c3ccc(-c4c[nH]c([C@@H](NC(=O)[C@@H]5COCCN5C(=O)OC(C)(C)C)C(C)(C)C)n4)cc3)cc2)c[nH]1)C(C)(C)C", "note": "[Compound L-61]", "Fold-Synergistic 1a (Q30E)": ">100"}, {"smiles": "CC(C)(C)[C@H](NC(=O)C12CCC(O)(CC1)CC2)c1nc(-c2ccc(-c3ccc(-c4c[nH]c([C@@H](NC(=O)C56CCC(O)(CC5)CC6)C(C)(C)C)n4)cc3)cc2)c[nH]1", "note": "[Compound W-128]", "Fold-Synergistic 1a (Q30E)": ">100"}, {"smiles": "CC(C)CC(=O)N[C@@H](Cc1ccccc1)c1nc(-c2ccc(-c3ccc(-c4c[nH]c([C@H](Cc5ccccc5)NC(=O)CC(C)C)n4)cc3)cc2)c[nH]1", "note": "[Compound P-6]", "Fold-Synergistic 1a (Q30E)": ">10"}, {"smiles": "CC(C)(C)[C@H](NC(=O)C12CCC(CC1)C2)c1nc(-c2ccc(-c3ccc(-c4c[nH]c([C@@H](NC(=O)C56CCC(CC5)C6)C(C)(C)C)n4)cc3)cc2)c[nH]1", "note": "[Compound S-261]", "Fold-Synergistic 1a (Q30E)": ">100"}, {"smiles": "COC12CCC(C(=O)N[C@H](c3nc(-c4ccc(-c5ccc(-c6c[nH]c([C@@H](NC(=O)C78CCC(OC)(CC7)CC8)C(C)(C)C)n6)cc5)cc4)c[nH]3)C(C)(C)C)(CC1)CC2", "note": "[Compound S-293]", "Fold-Synergistic 1a (Q30E)": ">100"}, {"smiles": "O=C(c1cccc2ccccc12)N1CCC[C@H]1c1ncc(-c2ccc(-c3ccc(-c4cnc([C@@H]5CCCN5C(=O)c5cccc6ccccc56)[nH]4)cc3)cc2)[nH]1", "note": "[Compound S-119]", "Fold-Synergistic 1a (Q30E)": ">10"}, {"smiles": "CC(C)N(C(=O)C(=O)N[C@H](c1nc(-c2ccc(-c3ccc(-c4c[nH]c([C@@H](NC(=O)C(=O)N(C(C)C)C5CC5)C5CC5)n4)cc3)cc2)c[nH]1)C1CC1)C1CC1", "note": "[Compound L-36]", "Fold-Synergistic 1a (Q30E)": ">100"}, {"smiles": "CC(C)(C)[C@H](NC(=O)[C@H]1CCCO1)c1nc(-c2ccc(-c3ccc(-c4c[nH]c([C@@H](NC(=O)[C@H]5CCCO5)C(C)(C)C)n4)cc3)cc2)c[nH]1", "note": "[Compound L-64]", "Fold-Synergistic 1a (Q30E)": ">100"}, {"smiles": "Cc1cccc(C(=O)N2CCC[C@H]2c2ncc(-c3ccc(-c4ccc(-c5cnc([C@@H]6CCCN6C(=O)c6cccc(C)n6)[nH]5)cc4)cc3)[nH]2)n1", "note": "[Compound S-191]", "Fold-Synergistic 1a (Q30E)": "<10"}, {"smiles": "CC1(C(=O)N[C@H](c2nc(-c3ccc(-c4ccc(-c5c[nH]c([C@@H](NC(=O)C6(C)COC(c7ccccc7)OC6)C(C)(C)C)n5)cc4)cc3)c[nH]2)C(C)(C)C)COC(c2ccccc2)OC1", "note": "(some centres unmarked) [Compound S-280]", "Fold-Synergistic 1a (Q30E)": ">100"}]}]}
